According to US20240043435A1, “TYK-2 INHIBITOR” (BEIGENE, LTD., priority 2020, published 2024):

Legend:
[1] = target: T1, TYK2-JH2 (aa 575-869, in-house) protein (Homo sapiens, UniProt P29597); test: TYK2-JH2 biochemical assay (HTRF probe displacement); assay type: binding; details: Biochemical assay; read-out: TYK2-JH2 IC50
T1 construct: TYK2-JH2 (aa 575-869, in-house) protein; made in house
In short: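 Recombinant TYK2-JH2 (0.2 nM) was pre-incubated 0.5 h at room temperature with compounds (10 doses, 5-fold dilution; 500× DMSO stocks from 500 uM) in 20 mM HEPES pH 7.5, 10 mM MgCl2, 0.005% BSA, 2 mM DTT, 0.015% Brij-35. Probe displacement was read by HTRF (ex337, em620/665 nm); IC50 from four-parameter logistic fit.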

[2] = system: JAK2, TYK2/p-STAT4 (Tyr693) activated by IL-12 in NK-92 cell line; test: IL-12-JAK2, TYK2/p-STAT4 (Tyr693) inhibition IC50 cellular assay; assay type: cell-based; details: for IC50: NK92, Cellular assay, read-out: pSTAT4/IL-12 IC50; for Selectivity fold (TYK2/JAK2): Cellular assay, pSTAT5/GM-CSF IC50 vs pSTAT4/IL-12 IC50
In short: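 NK-92 cells were starved overnight without IL-2 and preincubated 1 h at 37° C with compound (8 doses, 10000–0.61 nM, 4-fold, 0.2% DMSO). They were then stimulated with IL-12 (40 ng/ml final) for 30 min. Lysate p-STAT4 (Tyr693) was read by AlphaLISA SureFire; IC50 from four-parameter logistic fit.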

[3] = system: pSTAT5/GM-CSF; test: pSTAT5/GM-CSF cellular assay (JAK2 selectivity); assay type: cell-based; details: for Selectivity fold (TYK2/JAK2): pSTAT5/GM-CSF IC50 over pSTAT4/IL-12 IC50

T1 sequence (P29597 575-869): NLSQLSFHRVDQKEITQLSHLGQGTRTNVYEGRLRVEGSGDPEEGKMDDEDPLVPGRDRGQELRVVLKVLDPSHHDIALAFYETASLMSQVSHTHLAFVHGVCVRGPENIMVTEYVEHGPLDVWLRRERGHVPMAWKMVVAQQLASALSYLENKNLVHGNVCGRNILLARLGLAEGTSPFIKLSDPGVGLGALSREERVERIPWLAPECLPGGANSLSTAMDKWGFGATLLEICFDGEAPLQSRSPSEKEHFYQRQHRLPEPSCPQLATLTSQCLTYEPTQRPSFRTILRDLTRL

Structure (SMILES)	IC50 [1]	IC50 [2]	IC50 [3]	Selectivity fold (TYK2/JAK2) [3]	Selectivity fold (TYK2/JAK2) [2]
CC(=O)Nc1cc(Nc2cc(C#N)cc(S(C)(=O)=O)n2)c(-c2ccn(C)n2)cn1 [Example J26, N-(4-((4-cyano-6-(methylsulfonyl)pyridin-2-yl)amino)-5-(1-methyl-1H-pyrazol-3-yl)pyridin-2-yl)acetamide]	0.023 nM	5.5 nM	> 10 µM	>1818 fold	
CC(=O)Nc1cc(Nc2cccc(S(C)(=O)=O)c2)c(-c2ccn(C)n2)cn1 [Example J6, N-(5-(1-methyl-1H-pyrazol-3-yl)-4-((3-(methylsulfonyl)phenyl)amino)pyridin-2-yl)acetamide]	0.033 nM	7.94 nM	> 10 µM	>1259 fold	
COc1cc(Nc2cc(NC(C)=O)ncc2-c2ccc(C(F)(F)F)cn2)nc(S(C)(=O)=O)c1 [Example F20, N-(4′-((4-methoxy-6-(methylsulfonyl)pyridin-2-yl)amino)-5-(trifluoromethyl)-[2,3′-bipyridin]-6′-yl)acetamide]	0.031 nM	1.45 nM	> 10 µM		>6896 fold
CC(=O)Nc1cc(Nc2cc(O[C@H]3C[C@H](O)C3)cc(S(C)(=O)=O)n2)c(-c2ccc(C(C)(C)O)cn2)cn1 [Example H10]	0.017 nM	16.4 nM	> 10 µM		>607 fold
CC(=O)Nc1cc(Nc2cc(OC[C@H](C)O)cc(S(C)(=O)=O)n2)c(-c2ccc(C(F)(F)F)cn2)cn1 [Example F21, (S)-N-(4′-((4-(2-hydroxypropoxy)-6-(methylsulfonyl)pyridin-2-yl)amino)-5-(trifluoromethyl)-[2,3′-bipyridin]-6′-yl)acetamide]	0.026 nM	3.54 nM	> 10 µM		>2814 fold
CC(=O)Nc1cc(Nc2cc(-c3cnccc3C#N)cc(S(C)(=O)=O)n2)c(-c2ccc3c(n2)OCC(C)(C)O3)cn1 [Example Q115, N-(4-((4-cyano-6′-(methyslulfonyl)-[3,4′-bipyridin]-2′-yl)amino)-5-(2,2-dimethyl-2,3-dihydro-[1,4]dioxino[2,3-b]pyridin-6-yl)pyridin-2-yl)acetamide]	0.034 nM	0.302 nM	> 10 µM	>33112 fold	
CC(=O)Nc1cc(Nc2cc(C)cc(S(C)(=O)=O)n2)c(-c2ccn(C3CC3)n2)cn1 [Example M3, N-(5-(1-cyclopropyl-1H-pyrazol-3-yl)-4-((4-methyl-6-(methylsulfonyl)pyridin-2-yl)amino)pyridin-2-yl)acetamide]	0.031 nM	0.526 nM	8.35 µM	15876 fold	
COCCOc1ccc(-c2cnc(NC(C)=O)cc2Nc2cc(OCCOC)cc(S(C)(=O)=O)n2)nc1 [Example D8, N-(5-(2-methoxyethoxy)-4′-((4-(2-methoxyethoxy)-6-(methylsulfonyl)pyridin-2-yl)amino)-[2,3′-bipyridin]-6′-yl)acetamide]	0.036 nM	0.443 nM	> 10 µM		>22573 fold
CO[C@@H]1CCCN(c2cc(Nc3cc(NC(C)=O)ncc3-c3ccc4c(n3)OCC(C)(C)O4)nc(S(C)(=O)=O)c2)C1 [Example Q66, (R)-N-(5-(2,2-dimethyl-2,3-dihydro-[1,4]dioxino[2,3-b]pyridin-6-yl)-4-((4-(3-methoxypiperidin-1-yl)-6-(methylsulfonyl)pyridin-2-yl)amino)pyridin-2-yl)acetamide]	0.029 nM	0.792 nM	3.05 µM	3845 fold	
COCCOc1cc(Nc2cc(NC(C)=O)ncc2-c2ccn(C3CC3)n2)nc(S(C)(=O)=O)c1 [Example M4, N-(5-(1-cyclopropyl-1H-pyrazol-3-yl)-4-((4-(2-methoxyethoxy)-6-(methylsulfonyl)pyridin-2-yl)amino)pyridin-2-yl)acetamide]	0.026 nM	0.681 nM	> 10 µM	>14684 fold	
